ChEMBL document CHEMBL1641476, “Tetrahydroquinoline derivatives as opioid receptor antagonists” (Bioorg Med Chem Lett, 2011)

How the values were obtained:
Mu-type opioid receptor = Mu-type opioid receptor (Homo sapiens, UniProt P35372); test: Antagonist activity at human mu opioid receptor expressed in CHO cells assessed as [35S]GTPgammaS binding by SPA; type: functional, cell-based
[1] = molecular target: Delta-type opioid receptor (Homo sapiens, UniProt P41143); test: Antagonist activity at human delta opioid receptor expressed in CHO cells assessed as [35S]GTPgammaS binding by SPA; type: functional, cell-based
Sequence of Delta-type opioid receptor (P41143 whole entry): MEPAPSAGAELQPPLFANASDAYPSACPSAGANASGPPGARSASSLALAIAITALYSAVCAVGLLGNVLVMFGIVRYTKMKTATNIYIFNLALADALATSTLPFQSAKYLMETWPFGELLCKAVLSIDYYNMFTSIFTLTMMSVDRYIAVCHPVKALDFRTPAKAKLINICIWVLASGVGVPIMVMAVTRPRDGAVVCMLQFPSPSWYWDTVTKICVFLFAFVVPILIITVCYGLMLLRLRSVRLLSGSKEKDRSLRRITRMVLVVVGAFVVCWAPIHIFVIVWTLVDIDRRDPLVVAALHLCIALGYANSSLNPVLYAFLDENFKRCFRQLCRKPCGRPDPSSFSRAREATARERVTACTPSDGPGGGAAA

[2] = molecular target: Kappa-type opioid receptor (Homo sapiens, UniProt P41145); test: Antagonist activity at human kappa opioid receptor expressed in CHO cells assessed as [35S]GTPgammaS binding by SPA; type: functional, cell-based
Sequence of Kappa-type opioid receptor (P41145 whole entry): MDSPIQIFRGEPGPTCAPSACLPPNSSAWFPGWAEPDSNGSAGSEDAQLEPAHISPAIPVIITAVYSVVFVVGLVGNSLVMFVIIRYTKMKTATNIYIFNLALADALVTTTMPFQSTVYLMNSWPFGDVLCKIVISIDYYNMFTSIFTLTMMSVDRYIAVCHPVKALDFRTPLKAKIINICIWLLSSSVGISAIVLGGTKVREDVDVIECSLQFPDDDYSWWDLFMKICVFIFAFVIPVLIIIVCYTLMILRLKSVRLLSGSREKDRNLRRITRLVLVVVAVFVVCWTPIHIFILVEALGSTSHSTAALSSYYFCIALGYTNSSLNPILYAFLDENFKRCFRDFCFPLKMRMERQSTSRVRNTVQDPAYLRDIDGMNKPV

[3] = Half life in iv dosed Long-Evans rat; type: ADME, organism-based; details: in vivo
[4] = Volume of distribution at steady state in iv dosed Long-Evans rat; type: ADME, organism-based; details: in vivo, read-out: Vdss
[5] = Clearance in iv dosed Long-Evans rat; type: ADME, organism-based; details: in vivo
[6] = Oral bioavailability in Long-Evans rat; type: ADME, organism-based; details: in vivo
Rattus norvegicus = test: Ratio of drug level in po dosed Long-Evans rat; type: ADME, organism-based; details: in vivo

Sequence of Mu-type opioid receptor (P35372 whole entry): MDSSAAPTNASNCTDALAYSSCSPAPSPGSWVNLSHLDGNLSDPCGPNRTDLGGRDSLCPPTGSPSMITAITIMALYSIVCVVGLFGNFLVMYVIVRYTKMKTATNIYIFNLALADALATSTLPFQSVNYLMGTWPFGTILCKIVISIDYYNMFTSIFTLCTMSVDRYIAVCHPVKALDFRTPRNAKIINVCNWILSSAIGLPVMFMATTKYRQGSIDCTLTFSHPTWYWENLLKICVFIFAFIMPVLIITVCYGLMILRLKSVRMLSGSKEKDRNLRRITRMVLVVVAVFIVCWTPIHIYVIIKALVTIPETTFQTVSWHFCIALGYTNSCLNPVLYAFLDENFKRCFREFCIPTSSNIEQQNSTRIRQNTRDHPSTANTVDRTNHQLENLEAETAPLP

| Structure (SMILES) | Ki (Mu-type opioid receptor) [nM] | Ki [1] [nM] | Ki [2] [nM] | half-life [3] [h] | Vd [4] [L/kg] | clearance [5] [mL/min/kg] | bioavailability [6] [%] | Ratio (Rattus norvegicus) |
| --- | --- | --- | --- | --- | --- | --- | --- | --- |
| NC(=O)c1ccc2c(c1)CCCN2c1ccc(CNCCc2cccc(F)c2)cc1 | 31.6 | 251 | 794 | – | – | – | – | – |
| NC(=O)c1ccc2c(c1)CCCN2c1cc(F)c(CNC2Cc3ccccc3C2)c(F)c1 | 25.1 | 316 | 631 | – | – | – | – | – |
| CCCCCNCc1ccc(N2CCCc3cc(C(N)=O)ccc32)cc1 | 50.1 | 251 | 1000 | – | – | – | – | – |
| NC(=O)c1ccc2c(c1)CCCN2c1cccc(CNCCC2=CCCCC2)c1 | 50.1 | 200 | 1260 | – | – | – | – | – |
| NC(=O)c1ccc2c(c1)CCCN2c1ccc(CNC2Cc3ccccc3C2)c(F)c1 | 7.94 | 100 | 200 | – | – | – | – | – |
| NC(=O)c1ccc2c(c1)CCCN2c1ccc(CNC2Cc3ccccc3C2)c(Cl)c1 | 15.8 | 100 | 200 | – | – | – | – | – |
| NC(=O)c1ccc2c(c1)CCCN2c1ccc(CNCc2cccc(F)c2)cc1 | 100 | 398 | 631 | – | – | – | – | – |
| NC(=O)c1ccc2c(c1)CCCN2c1ccc(CNC2CCN(C3CCOCC3)CC2)cc1 | > 3980 | > 3980 | > 3980 | – | – | – | – | – |
| CC(C)(C)CCNCc1ccc(N2CCCc3cc(C(N)=O)ccc32)cc1 | 50.1 | 316 | 251 | – | – | – | – | – |
| Cc1cc(N2CCCc3cc(C(N)=O)ccc32)ccc1CNCCC1=CCCCC1 | 100 | 501 | 631 | – | – | – | – | – |
| Cc1cc(N2CCCc3cc(C(N)=O)ccc32)ccc1CNC1Cc2ccccc2C1 | 7.94 | 158 | 158 | – | – | – | – | – |
| CC1(C)CCC(NCc2ccc(N3CCCc4cc(C(N)=O)ccc43)cc2)CC1 | 10 | 50.1 | 63.1 | – | – | – | – | – |
| NC(=O)c1ccc2c(c1)CCCN2c1ccc(CNC2Cc3ccccc3C2)c(C(F)(F)F)c1 | 50.1 | 63.1 | 631 | – | – | – | – | – |
| NC(=O)c1ccc2c(c1)CCCN2c1cccc(C(=O)NCCC2=CCCCC2)c1 | 2000 | 1580 | > 3980 | – | – | – | – | – |
| NC(=O)c1ccc2c(c1)CCCN2c1ccc(CNCCC2CCOCC2)cc1 | 126 | 316 | 251 | – | – | – | – | – |
| NC(=O)c1ccc2c(c1)CCCN2c1ccc(CNCC2CCCCC2)cc1 | 39.8 | 398 | 316 | – | – | – | – | – |
| NC(=O)c1ccc2c(c1)CCCN2c1ccc(CNC2Cc3ccc(F)cc3C2)cc1 (stereo not drawn) | 12.6 | 79.4 | 126 | – | – | – | – | – |
| CC(C)CNCc1ccc(N2CCCc3cc(C(N)=O)ccc32)cc1 | 631 | > 3980 | 1260 | – | – | – | – | – |
| CC(C)CCNCc1ccc(N2CCCc3cc(C(N)=O)ccc32)cc1 | 79.4 | 316 | 501 | – | – | – | – | – |
| Cc1cc(CNC2Cc3ccccc3C2)ccc1N1CCCc2cc(C(N)=O)ccc21 | 1.58 | 12.6 | 20 | – | – | – | – | – |
| NC(=O)c1ccc2c(c1)CCCN2c1ccc(CNCCc2cccs2)cc1 | 25.1 | 316 | 631 | – | – | – | – | – |
| Cc1cc(CNCCC2=CCCCC2)ccc1N1CCCc2cc(C(N)=O)ccc21 | 12.6 | 100 | 200 | – | – | – | – | – |
| NC(=O)c1ccc2c(c1)CCCN2c1ccc(CNC2Cc3ccccc3C2)cc1 | 5.01 | 39.8 | 25.1 | – | – | – | – | – |
| O=C(O)c1ccc2c(c1)CCCN2c1ccc(CNCCC2=CCCCC2)cc1 | > 3160 | > 3980 | > 3980 | – | – | – | – | – |
| C1=C(CCNCc2ccc(N3CCCc4ccccc43)cc2)CCCC1 | 398 | > 3980 | > 3980 | – | – | – | – | – |
| NC(=O)c1ccc2c(c1)CCCN2c1ccc(CNCCC2=CCCCC2)cc1 | 25.1 | 158 | 316 | 5.34 | 1.5 | 26.5 | 33 | 0.1 |
